# What was measured:
# [1] = biological target: T1, human DNA topoisomerase I (Homo sapiens, UniProt P11387); assay: oligonucleotide cleavage assay:[…] BA added before […] CPT; type: biochemical
# T1 construct: gene TOP1
# T1 sequence (P11387 2-765): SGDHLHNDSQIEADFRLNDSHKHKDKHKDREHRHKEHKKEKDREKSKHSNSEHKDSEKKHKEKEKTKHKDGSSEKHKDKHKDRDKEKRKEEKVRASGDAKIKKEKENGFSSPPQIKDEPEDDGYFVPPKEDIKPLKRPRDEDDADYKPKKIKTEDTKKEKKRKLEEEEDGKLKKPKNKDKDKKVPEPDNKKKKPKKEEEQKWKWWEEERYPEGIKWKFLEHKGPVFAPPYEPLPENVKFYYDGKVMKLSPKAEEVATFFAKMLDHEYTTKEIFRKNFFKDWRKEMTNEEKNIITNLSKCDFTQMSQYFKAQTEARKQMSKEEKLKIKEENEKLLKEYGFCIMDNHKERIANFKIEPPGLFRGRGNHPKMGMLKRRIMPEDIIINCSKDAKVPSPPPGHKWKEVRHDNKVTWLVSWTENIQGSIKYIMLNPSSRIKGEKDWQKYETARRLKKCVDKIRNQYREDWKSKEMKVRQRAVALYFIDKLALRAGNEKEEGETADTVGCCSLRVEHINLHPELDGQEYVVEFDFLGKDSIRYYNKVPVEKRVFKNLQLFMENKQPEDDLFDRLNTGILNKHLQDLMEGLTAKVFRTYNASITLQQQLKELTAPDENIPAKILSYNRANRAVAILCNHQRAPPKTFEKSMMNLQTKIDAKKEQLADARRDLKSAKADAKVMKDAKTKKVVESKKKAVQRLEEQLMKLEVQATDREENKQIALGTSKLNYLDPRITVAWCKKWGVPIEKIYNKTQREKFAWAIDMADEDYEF
# [2] = biological target: T1, human DNA topoisomerase I; assay: DNA relaxation assay with enzyme preincubation; also EMSA and cleavage assays; type: biochemical
SMILES,oligonucleotide cleavage assay: 20 uM BA added before 20 uM CPT [1],IC100 [2]
C=C(C)[C@@H]1CC[C@]2(C(=O)O)CC[C@]3(C)[C@H](CC[C@@H]4[C@@]5(C)CC[C@H](O)C(C)(C)[C@@H]5CC[C@]43C)[C@@H]12 [Betulinic acid],SQDG/BA abrogates CPT mediated topo I-oligo covalent complex formation,
CCCCCCCCCCCCCCCC(=O)OC[C@H](CO[C@H]1O[C@H](CS(=O)(=O)O)[C@@H](O)[C@H](O)[C@H]1O)OC(=O)CCCCCCCCCCCCCCC [SQDG],,1.5 µM
